Patent US20120040389A1 (Institut National de la Sante et de la Recherche Medicale …, priority 2003, published 2012)

Experiments:
Bax protein = assay: Bax activation: retention of GFP-Bax fluorescence after digitonin permeabilization, flow cytometry; type: cell-based, human; conditions: clone 10; coupled test FL1 (GFP) / FL3 (DNA); FIG. 11
Procedure: (§1) FIG. 11A-E represents the coupled measurement of Bax activation and the cell cycle. The clone 10 cells stably expressing the GFP-Bax fusion protein are treated with various drugs acting as pro-apoptotic agents and/or cytostatic agents. The measurement of Bax activation is carried out as described previously by evaluation of the retention of fluorescence after permeabilization with digitonin. In the permeabilization buffer, propidium iodide (0.4-0.8 mg/ml) was added and the cells were incubated for 30 minutes at 4° C. The distribution of the cells in the various phases of the cell cycle is read on the basis of their intensity of fluorescence in the red (PI).
The model implemented uses a clone designated “clone 10”.
The test is then based on the observation, under the fluorescence microscope or by flow cytometry, of the cells in which Bax is not activated and thus is distributed uniformly in the cytosol and of the cells in which Bax has been activated following an induction of apoptosis. In the latter case, the fluorescent signal is aggregated around the mitochondria and the Bax protein is thus considered as “bound”.
The cells are then resuspended in an intracellular saline solution in the presence of 50 μM of digitonin and then analyzed by flow cytometry and the fluorescence of the GFP is measured in channel FL1.

clone 10 cells = assay: Cell cycle distribution by propidium iodide, coupled with the Bax activation test; type: cell-based, human; conditions: propidium iodide 0.4-0.8 mg/ml, 30 minutes at 4° C., FIG. 11
Procedure: as §1, with “(PI). […] Moreover, it makes it possible to evaluate if Bax activation takes place in a preferential phase of the cell cycle.” for “(PI).”
The measurement of the cell cycle can be carried out in a traditional way by adding to the permeabilized cell suspension a sufficient concentration of propidium iodide (0.4-0.8 mg/ml). The cells are incubated for 30 minutes to allow time for PI to become intercalated in the genomic DNA, and then analyzed using flow cytometry by simultaneously measuring “green” fluorescence (FL1=the recombinant biosensor signal based on GFP or another fluorescent protein emitting in the green range) and “red” fluorescence (FL3=the intensity of PI corresponding to the chromatin content of each cell, which enables the cell cycle to be read).

caspase 3 [1] = assay: Caspase 3 activation in a xenografted clone 23 tumor in nude mice, confocal microscopy; type: in vivo; conditions: mouse with xenografted clone 23 tumor; 40 mg/kg/day for 4 days; FIG. 12c
Source text: FIG. 12 represents the xenograft of lines expressing a fluorescent biosensor. a) Confocal microscopy image (10×) of a section of a solid tumor generated by a subcutaneous xenograft of clone 10 cells (stably expressing GFP-Bax) in nude mice. Marking of nuclei (Hoechst) and cells with activated Bax (GFP-Bax). On the right, the detail of a cell with GFP-Bax relocalized to the mitochondria (GFP-Bax) and corresponding nuclear marking (Hoechst). b) Confocal microscopy image (10×) of a section of a solid tumor generated by a subcutaneous xenograft of clone 23 cells (stably expressing the protein copGFP-DEVD-cb5TMD-RR) in nude mice. Marking of nuclei (Hoechst) and distribution of the biosensor (caspase 3 probe).
These lines (designated clone 10 and clone 23, respectively), injected subcutaneously in “nude” mice form solid fluorescent tumors after a few days.

caspase 2 = assay: Distribution of nuclear-anchored caspase 2 probe in HeLa cells; type: cell-based, human; conditions: transiently transfected, 3 hours, untreated cells show nuclear distribution, FIG. 10e
Source text: Fusion proteins GFP-cb5TMRR and GFP-SNAP(80-136) were constructed which carry, in the linker connecting the fluorescent protein and the anchoring segment, the caspase 8 consensus sensing site (IETD) which is principal “initiating” pro-apoptotic caspase. In the same manner, a fusion protein GFP-H2B was constructed which contains, in the sequence linker, the caspase 2 consensus sensing sequence (VDVAD), which is a protease with nuclear localization. The sensing components thus used have as sequences SEQ ID No. 6 and 14 (for caspase 8), and SEQ ID No. 12 (for caspase 2). These proteins are cleavable and the quantification of the proteolytic activity can be carried out via cytometry as shown for caspase 3 (FIG. 10).

caspase 3 [2] = assay: Cleavage and redistribution of caspase 3 probes, confocal and fluorescence microscopy; type: cell-based, human
Procedure: The quantification of cleavage and of the diffusion of the fluorescent signal in the cytosol is carried out by measuring the increase in the respectively green and red fluorescent signal in a region of the nucleus.
The quantification of the cleavage and of the diffusion of the fluorescent signal respectively from the nucleus to the cytosol for the protein H2B-DEVD-GFP and from the cytosol to the nucleus for the protein HcRed-DEVT-cb5 is carried out by measuring the increase in the fluorescent signal, respectively green in a cytosolic region of the cell and red in a region of the nucleus. e) Evaluation by flow cytometry of the functionality of the probe by quantification of the percentage of retention of fluorescence after permeabilization in a population of HeLa cells transfected transiently with the protein H2B-DEVD-GFP and its non-cleavable control.
The cells are cultivated on glass slides and transfected with the vector described previously; they are then mounted in a saline medium in an incubation chamber and observed under the fluorescence microscope. Before or during the observation, they are treated with the pro-apoptotic agent.

Structure (SMILES)	Bax activation in relation to the phase of the cell cycle (Bax protein)	Effect on the cell cycle (distribution in phases G1, S, G2/M) (clone 10 cells)	further results
CC[C@@]1(O)C(=O)OCc2c1cc1n(c2=O)Cc2cc3ccccc3nc2-1 [camptothecin]	Bax activation preferentially in phase Gl	blockage in phase S	
CN[C@H]1CCc2cc(OC)c(OC)c(OC)c2-c2ccc(OC)c(=O)cc21 [colcemid]		accumulation in phase G2	
COc1cccc2c1C(=O)c1c(O)c3c(c(O)c1C2=O)C[C@@](O)(C(C)=O)C[C@@H]3O[C@H]1C[C@H](N)[C@H](O)[C@H](C)O1 [daunorubicin]	Bax activation in phase S	accumulation in phase G2	
COc1cc([C@@H]2c3cc4c(cc3[C@@H](O[C@@H]3O[C@@H]5CO[C@@H](C)O[C@H]5[C@H](O)[C@H]3O)[C@H]3COC(=O)[C@H]23)OCO4)cc(OC)c1O [etoposide]			Caspase 3 activation in tumor cells (cytosolic distribution of fluorescence) (caspase 3 [1]): appearance of cells having activated caspase 3
CN[C@@H]1C[C@H]2O[C@@](C)([C@@H]1OC)n1c3ccccc3c3c4c(c5c6ccccc6n2c5c31)C(=O)NC4 [staurosporine]	induction of Bax activation in any phase of the cycle	no effect on the cycle	Distribution of fluorescent protein GFP-IETD-H2B (caspase 2): cytosolic distribution; Cleavage of probes GFP-DEVD-ANT and HcRed-DEVD-Cb5RR (caspase 3 [2]; human HeLa cells, transiently co-transfected, confocal microscopy, FIG. 8e-f): Release of the fluorescent protein in the cytosol following its cleavage; Distribution of fluorescent protein H2B-DEVD-GFP (caspase 3 [2]; human HeLa cells, transiently transfected, untreated cells show nuclear distribution, FIG. 9c): cytosolic distribution; Cleavage of probe GFP-DEVD-SNAP(80-136) (caspase 3 [2]; human SH-SY5Y neuroblastoma cells, transiently transfected, confocal microscopy, FIG. 7c): Release of the fluorescent protein in the cytosol following its cleavage
